{"source": "patent US20120196858A1", "about": "“METHOD OF PROMOTING APOPTOSIS AND INHIBITING METASTASIS” (Poniard Pharmaceuticals ,Inc., priority 2009, published 2012)", "key": {"[1]": {"system": "p130Cas tyrosine phosphorylation (pY249, pY410)", "test": "Phospho-specific immunoblotting of p130Cas in 4T1 cells", "format": "cell-based, murine", "from_the_text": "Immunoblotting: Protein extracts of cells were made using lysis buffer containing 1% Triton X-100, 1% sodium deoxycholate, and 0.1% SDS and were separated by 4-12% SDS-PAGE (sodium dodecyl sulfate polyacrylamide gel electrophoresis) and sequential immunoblotting performed as described in Mitra S K, Lim S T, Chi A, Schlaepfer D D. Intrinsic focal adhesion kinase activity controls orthotopic breast carcinoma metastasis via the regulation of urokinase plasminogen activator expression in a syngeneic tumor model. Oncogene 2006; 25:4429-40. Relative expression levels and phospho-specific antibody reactivity were measured by densitometry analyses of blots using Image J (version 1.42q). Inhibition of FAK and p130Cas tyrosine phosphorylation was quantified by calculating the ratio of pY397 FAK protein to total FAK. Similar analyses were performed for p130Cas using pY410 p130Cas and total p130Cas blot data."}, "4T1 cells [2]": {"system": "4T1 cells", "test": "Time lapse scratch-wound closure motility assay", "format": "cell-based", "experimental": "(§1) Cell migration assays: Serum-stimulated chemotaxis using Millicell (12 mm diameter with 8 μm pores; Millipore) chambers were performed as described previously^49. Both sides of membrane were coated with fibronectin (10 μg/ml) and chemotaxis was stimulated by addition of 10% FBS to the lower chamber. Data points represent cell counts (9 fields) from three migration chambers from at least two independent experiments. For scratch-wound closure motility assays, cells were seeded onto fibronectin-coated (10 μg/ml) glass bottom 12 well plates (MatTek) and serum starved (0.5% FBS) for 16 h. Cells were wounded with a pipette tip, washed with phosphate-buffered salin (PBS), and replenished with 10% FBS media with or without FAK inhibitor (1 μM). Time-lapse series was obtained by acquiring images at 10 min intervals for up to 22 h, at 37° C. with humidity and CO2 regulation using a 10× objective on an automated stage (Olympus IX81). Cell trajectories and distance traveled were measured by tracking nucleus position over time using Image J."}, "4T1 cells [3]": {"system": "4T1 cells", "test": "Millicell chamber motility assay (fibronectin, serum chemotaxis)", "format": "cell-based, murine", "conditions": "Mus musculus, 4 h, read-out: maximal inhibition of cell movement", "experimental": "as §1"}, "4T1 cells [4]": {"system": "4T1 cells", "test": "Cell adhesion to fibronectin", "format": "cell-based, murine"}, "4T1 cells [5]": {"system": "4T1 cells", "test": "Adherent and suspended (non-adherent) cell growth, cell numbers", "format": "cell-based, murine", "experimental": "(§2) Anchorage-dependent, spheroid, and soft agar cell growth assays: Cells (2×10^5) were plated per 35 mm well under adherent (tissue culture-treated) and non-adherent conditions (poly-HEMA-coated) in 6-well plates (Costar) in growth media. Between 24 and 168 h, all cells were collected, a single cell suspension was prepared by limited trypsin-EDTA treatment, and viable cells were enumerated by trypan blue staining and counting (ViCell XR, Beckman). For spheroid area determination, cells were imaged after 72 h in phase contrast using an Olympus IX51 microscope. Area was calculated using Image J software (version 1.43). For soft agar assays, 48-well plates were coated with a 1:4 mix of 2% agar (EM Science) in 0.2 ml growth media (bottom layer). 5×10^4 cells were plated per well (in triplicate) in a mixture of 0.3% agar in 0.2 ml growth media (top layer). […] After 10 days, colonies were imaged in phase contrast, enumerated by counting 9 fields (3 fields per well), and total area determined using Image J. For all analyses, experimental points were performed in triplicate and were experiments were repeated at least two times."}, "4T1 cells [6]": {"system": "4T1 cells", "test": "Cell cycle analysis by propidium iodide staining and flow cytometry", "format": "cell-based, murine", "conditions": "1.0 μM", "experimental": "Cell pellets were resuspended in 300 p. 1 of PBS containing propidium iodide (PI) (10 μg/ml), DNAse-free RNAse (100 μg/ml, Qiagen), and then incubated at 37° C. with agitation for 1 h. Samples were analyzed by flow cytometry (FACSCalibur, Becton-Dickinson) and cell cycle analyses were performed by ModFit LT3.2 software (Verity software house). Hypodiploid DNA content as a measure of cell apoptosis was detected by PI staining as described ^29. […] Quadrant gates were positioned based on cell autofluorescence (negative) staurosporine-treated (positive) controls. Apoptosis was calculated to be the percent of annexin V-positive cells. In the soft agar assays, apoptosis was quantified by visual inspection of at least 200 cells and was defined as the appearance of membrane blebbing or cell shrinkage. Apoptosis was also detected by appearance of cleaved caspase-3 antibody reactivity in protein lysates by immunoblotting."}, "4T1 cells [7]": {"system": "4T1 cells", "test": "3D spheroid size assay", "format": "cell-based, murine", "conditions": "72 h", "experimental": "as §2"}, "MDA-MB-231 tumors": {"system": "MDA-MB-231 tumors", "test": "Orthotopic MDA-MB-231 breast carcinoma model", "format": "in vivo, NOD/SCID mice", "conditions": "0.5 mg/ml ad libitum", "method": "Orthotopic breast cancer models: One million 4T1 or MDA-MB-231 cells in 10 μl PBS were injected into the T4 mammary fat pad of 8-10 week old mice using a Hamilton syringe. […] Tumors were measured every 3-4 days with digital vernier calipers and tumor volume (mm^3) was calculated using the formula: V=axb^2/2 (a=length, mm; b=width, m) Body weight was measured weekly to assess toxicity. Lungs, spleen, and primary tumors were surgically removed and weighed. Tumors sections were homogenized in protein lysis buffer for immunoblotting or placed in Optimal Cutting Temperature (OCT) compound (Tissue Tek), frozen in liquid nitrogen, thin sectioned (7 μM) using a cryostat (Leica 3050S), and mounted onto glass slides.\nMetastatic tumor burden (number of metastatic lesion or mean pixel volume) was determined and groups (Negligible, Moderate, and High) were separated based upon numbers distribution. After imaging, lungs were fixed in Bouin's solution (Sigma), paraffin embedded, sectioned, and stained with hematoxylin and eosin (H&E) for histological evaluation. Images were acquired using a differential interference contrast-equipped Olympus IX81 inverted microscope and an Olympus DP71 digital color camera using Slidebook (v5.0) software. For MDA-MB-231 tumor metastasis studies, lungs were inflated by intratracheal injection of a 1:1 solution of OCT in sterile water using a 25 gauge needle. Lungs were resected, embedded in OCT, and frozen in liquid nitrogen."}, "MDA-MB-231 cells": {"system": "MDA-MB-231 cells", "test": "Experimental metastasis assay (tail vein injection)", "format": "in vivo, nude mice", "conditions": "150 mg/kg p.o. pre-administered; 1 and 6 h", "experimental": "To determine experimental metastasis burden, lungs were removed 1 and 6 h post cell injection, rinsed in PBS, and dorsal plus ventral fluorescent images acquired using OV100 imaging. A common threshold for mCherry fluorescence was set for all images and the total fluorescent lung area was calculated using Image J."}}, "data": [{"smiles": "CNC(=O)c1ccccc1Nc1cc(Nc2ccc(N3CCOCC3)cc2OC)ncc1C(F)(F)F", "note": "[PND-1186]", "values": [{"measurement": "p130Cas pY249 phosphorylation in 4T1 spheroids", "setting": "[1]; 0.1 μM, 3D spheroids", "result": "potently inhibited"}, {"measurement": "p130Cas pY410 phosphorylation in 4T1 spheroids", "setting": "[1]; 0.1 μM, 3D spheroids", "result": "potently inhibited"}, {"measurement": "p130Cas pY249 phosphorylation", "setting": "[1]; adherent 4T1 cells, 1 h, PND-1186 to 1 μM", "result": "did not affect"}, {"measurement": "cell detachment or death", "setting": "4T1 cells [2]; 1 μM over 22 h", "result": "No evidence of 4T1 cell detachment or death"}, {"measurement": "wound closure", "setting": "4T1 cells [2]; 1 μM, 22 h (DMSO 89%)", "result": 40, "unit": "%"}, {"measurement": "inhibition at 0.4 µM", "setting": "4T1 cells [3]", "result": "50 to 60", "unit": "%"}, {"measurement": "effect on 4T1 cell adhesion to fibronectin", "setting": "4T1 cells [4]", "result": "did not affect 4T1 cell adhesion to fibronectin"}, {"measurement": "reduction of cell number, suspended cells", "setting": "4T1 cells [5]; 0.1 μM, 72 h, vs DMSO", "result": "significant (p<0.001)"}, {"measurement": "cell proliferation, FAK-Cas phosphorylation and cell death", "setting": "4T1 cells [5]; 100 nM, colonies in soft agar or non-adherent conditions", "result": "inhibited cell proliferation, FAK-Cas phosphorylation, and induced cell death"}, {"measurement": "total cell number, adherent cells", "setting": "4T1 cells [5]; 1.0 μM, 72 h", "result": "decreased in number"}, {"measurement": "total cell number, adherent cells", "setting": "4T1 cells [5]; 0.1 to 1.0 μM, 24 or 48 h", "result": "no differences were observed"}, {"measurement": "total cell number, suspended cells", "setting": "4T1 cells [5]; all concentrations (0.1 to 1.0 μM), 48 h", "result": "reduced cell numbers"}, {"measurement": "cytotoxicity to cells in culture", "setting": "4T1 cells [5]; cells in culture", "result": "non-cytotoxic"}, {"measurement": "cell cycle distribution, suspended cells", "setting": "4T1 cells [6]", "result": "did not reveal cell cycle differences"}, {"measurement": "cell cycle distribution, adherent cells", "setting": "4T1 cells [6]; 72 h, vs DMSO", "result": "slight accumulation in the S and G2/M phases"}, {"measurement": "sub-diploid (1N) cells, suspended cells", "setting": "4T1 cells [6]; PI staining", "result": "accumulation of sub-diploid (1N) cells"}, {"measurement": "reduction in average spheroid size", "setting": "4T1 cells [7]; 0.1 μM", "result": "~3", "unit": "fold"}, {"measurement": "concentration of maximal effect on spheroid size", "setting": "4T1 cells [7]", "result": 0.2, "unit": "µM"}, {"measurement": "FAK pY397 phosphorylation in MDA-MB-231 tumors", "setting": "MDA-MB-231 tumors", "result": "significantly reduce FAK pY397 phosphorylation"}, {"measurement": "reduction of number of metastatic lung lesions", "setting": "MDA-MB-231 tumors", "result": "> 3.5", "unit": "fold"}, {"measurement": "tumor size by Day 27 (caliper)", "setting": "MDA-MB-231 tumors; 15 days of administration", "result": "control tumors were significantly larger"}, {"measurement": "decrease in final tumor weight", "setting": "MDA-MB-231 tumors; Day 70", "result": "> 5", "unit": "fold"}, {"measurement": "accumulation of tumor cells in the lungs", "setting": "MDA-MB-231 cells", "result": "significantly inhibited the accumulation of tumor cells in the lungs"}]}]}
